# In patent US10125121B2, “FYN kinase inhibitors” (ROTTAPHARM BIOTECH S.R.L., priority 2015, dated 2018):
# What was measured:
# [1] = tested on: mechanical hyperalgesia in meniscal tear osteoarthritis; experiment: Surgically induced meniscal tear osteoarthritis in the rat (MMT); type: in vivo
# From the text: Male Sprague Dawley rats (Charles River) approximately 350 g body weight were used. Rats were anesthetized using 2.5% isoflurane in oxygen with a flow rate of 1 I per minute. The right hind leg was shaved and surgically prepared. The medial collateral ligament was exposed and transected. The meniscus was grasped with a hemostat and reflected proximally toward the femur. The meniscus was cut through its full thickness at the narrowest point. The connective tissue layer and the skin were closed with coated Vicryl 8-0 and 4-0 silk sutures, respectively. Sham operated animals underwent an identical procedure with the exception that the medial collateral ligament was exposed but not transected. After a recovery period of 2 weeks, mechanical hyperalgesia was evaluated for the following 4 weeks, once a week, before and 90 minutes after drugs administration. Pharmacological oral treatment was performed for 28 days, starting from 14 days after surgery. After 6 weeks from surgery, rats (ten animals per group) were sacrificed and the ipsilateral knee was removed for histopathological analysis.
# The maximum possible effect (MPE %) was calculated by the following formula: 100*(Compound−Vehicle)/(Sham−Vehicle)
# CFA induced hyperalgesia = experiment: CFA-induced inflammatory pain in rats (Randall-Selitto paw withdrawal threshold); type: in vivo; details: 3; rat, 24 h after administration
# Experimental: Male Wistar rats were injected into the right hind footpad with 300 μg of Mycobacterium tuberculosis in 100 μL of liquid paraffin (Complete Freund's Adjuvant; CFA). Seventy-two hours later, compounds 2 and 26 were administered subcutaneously and 24 h after the administration, the response to noxious mechanical stimulation was assessed by measuring paw withdrawal threshold (PWT) with an analgesimeter of the Randall-Selitto type. Animals were gently restrained, and steadily increasing pressure was applied to the dorsal surface of both the ipsi-lateral (CFA-treated) and the contra-lateral paw via a dome-shaped plastic tip.
# 100% protection means that the animal treated with the compound and CFA can tolerate the same stimulus (weight) as the control animal which has not received CFA treatment.
# [2] = tested on: NF-kB activation in JB6 CI 41-5a (P+) cells; experiment: Gene reporter (GR) assay, NF-kB luciferase after TNFα stimulation; type: cell-based, murine; details: Mus musculus; 1 h pre-treatment, 2 ng/ml TNFα for 4 h; read-out: IC50(nM) GR Inhibition
# From the text: To determine if the compounds of the invention were active also in a cellular model, a gene reporter assay was established in a cell line (JB6 CI 41-5a (P+)) know to activate Fyn kinase via an inflammatory stimuli (TNFα). GR assay measures the activation of the nuclear transcription factor NF-kB, situated down-stream the Fyn activation pathway. Products active in this analysis has to penetrate in the cell and inhibit the activation pathway of NF-kB.
# The murine epithelial cell line JB6 CI 41-5a (P+) (ATCC® Cat. # CRL-2010) was stably transfected with the pGL4.32[luc2P/NFkB-RE/Hygro] vector (Promega). Clonal selection was achieved by limiting dilution in MEM (+Earle's BSS+1.5 g/l sodium bicarbonate+0.1 mM NEAA)+GlutaMAX™-I, +1 mM sodium pyruvate, +5% FBS+80 μg/ml Hygromycin B. The clones were tested for their response to TNFα stimulus. The obtained transfected cells (JB6(P+) NFkB-RE-luc2P T3-C10) contained a firefly luciferase gene (luc2P) under the control of minimal TATA promoter with multiple Nuclear Factor-kB response elements (NFkB-REs). These NFkB-REs are DNA binding sequences for the NF-kB transcription factor.
# JB6(P+) NFkB-RE-luc2P T3-C10 cells were used for the analysis of NF-kB activity modulation, after TNFα stimulation, by Fyn-inhibitors (Hwang et al.; Biochem. Pharmacol. 2009, 77 (7):1213-22).
# 6000 cells/well were plated in a 96× well plate. After 24 h new medium without antibiotics was given. After further 24 h the cells were pre-treated with the different compounds for 1 h and then stimulated with 2 ng/ml TNFα for 4 h. In each experiments two positive standards were always used, and each tested condition was analyzed in quadruplicate.
# The luciferase analysis was performed with ONE-Glo™+ToxLuciferase Reporter and Cell Viability Assay kit (Promega). This assay combined luciferase assay chemistry with a cell viability marker to better understand reporter gene expression in the context of cell health. The assay uses a two-step process. The first part of the assay was a non-lytic fluorescence assay (CellTiter-Fluor™ Cell Viability Assay) that measured the relative number of live cells in a culture population, as it measures a conserved and constitutive protease activity within live cells. The live-cell protease activity was restricted to intact viable cells and was measured using a fluorogenic, cell-permeant peptide substrate (glycyl-phenylalanyl-aminofluorocoumarin; GF-AFC). The generated fluorescent signal, proportional to the number of living cells, was measured with EnVision microplate reader (PerkinElmer) using an excitation wavelength of 400 nm and emission wavelength of 500 nm.
# The second part of the assay uses the ONE-Glo™ Luciferase Assay System to quantify firefly luciferase reporter gene expression. The ONE-Glo™ Assay contained a fluoro-luciferin substrate, more tolerant to sample components than standard luciferase assay reagents. Luminescence was measured with EnVision microplate reader (PerkinElmer).
# Compounds of Formula (I) were tested for their capacity to penetrate into the cell and inhibit the activation pathway of NF-kB.
# [3] = tested on: other kinases examined of the SRC family; experiment: Kinase selectivity panel by Cerep
# SRC = SRC (Homo sapiens, UniProt P12931); experiment: Kinase selectivity panel by Cerep
# Pharmacokinetics in rats = type: in vivo, rat; details: rat, in vivo, po, 1 mg/kg orally
# [4] = 10 mg/kg daily orally, day 21 post surgery
# [5] = 10 mg/kg daily orally, day 28 post surgery
# [6] = 10 mg/kg daily orally, day 35 post surgery
# [7] = 10 mg/kg daily orally, day 42 post surgery
# [8] = 30 mg/kg daily orally, day 21 post surgery
# [9] = 30 mg/kg daily orally, day 28 post surgery
# [10] = 30 mg/kg daily orally, day 35 post surgery
# [11] = 30 mg/kg daily orally, day 42 post surgery
# Chain of SRC (P12931 whole entry): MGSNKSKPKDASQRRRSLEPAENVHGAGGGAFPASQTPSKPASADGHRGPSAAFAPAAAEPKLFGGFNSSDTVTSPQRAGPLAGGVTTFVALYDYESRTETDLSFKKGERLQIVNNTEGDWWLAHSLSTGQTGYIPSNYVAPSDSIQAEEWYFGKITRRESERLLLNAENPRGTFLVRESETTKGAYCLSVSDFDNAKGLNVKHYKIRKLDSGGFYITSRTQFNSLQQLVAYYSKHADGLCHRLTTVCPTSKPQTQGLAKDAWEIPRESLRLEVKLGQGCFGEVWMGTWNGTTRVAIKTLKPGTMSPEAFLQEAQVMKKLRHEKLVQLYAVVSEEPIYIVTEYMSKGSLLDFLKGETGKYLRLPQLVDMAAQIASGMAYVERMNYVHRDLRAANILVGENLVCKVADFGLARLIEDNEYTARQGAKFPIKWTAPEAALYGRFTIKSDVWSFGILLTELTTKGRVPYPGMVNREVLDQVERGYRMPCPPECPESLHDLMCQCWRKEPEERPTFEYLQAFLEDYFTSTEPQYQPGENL
smiles,measurement,setting,value
"O=C(Nc1ccc(CN2CCN(c3nccc(Nc4cc(C5CC5)[nH]n4)n3)CC2)cc1)c1ccccc1C(F)(F)F [Compound 2, N-(4-((4-(4-((5-cyclopropyl-1H-pyrazol-3-yl)amino)pyrimidin-2-yl)piperazin-1-yl)methyl)phenyl)-2-(trifluoromethyl)-benzamide]",Pain threshold,"[1]; 10 mg/kg daily orally, day 14 post surgery",308 g
same,Pain threshold,[1]; [4],333 g
same,Pain threshold: MPE (%),[1]; [4],30.5%
same,Pain threshold,[1]; [5],323 g
same,Pain threshold: MPE (%),[1]; [5],22.6%
same,Pain threshold,[1]; [6],313 g
same,Pain threshold: MPE (%),[1]; [6],18.2%
same,Pain threshold,[1]; [7],298 g
same,Pain threshold: MPE (%),[1]; [7],21%
same,Pain threshold,"[1]; 30 mg/kg daily orally, day 14 post surgery",305 g
same,Pain threshold,[1]; [8],358 g
same,Pain threshold: MPE (%),[1]; [8],44%
same,Pain threshold,[1]; [9],343 g
same,Pain threshold: MPE (%),[1]; [9],35.5%
same,Pain threshold,[1]; [10],335 g
same,Pain threshold: MPE (%),[1]; [10],38.2%
same,Pain threshold,[1]; [11],320 g
same,Pain threshold: MPE (%),[1]; [11],43%
same,% protective effect vs. CFA induced hyperalgesia,CFA induced hyperalgesia,100%
same,IC50,[2],190 nM
same,average potency ratio (other SRC family kinases vs FYN),[3],about 100
same,IC50,"[3]; read-out: IC50, all other kinases examined of the SRC family",> 100 nM
same,IC50,SRC,730 nM
same,bioavailability,Pharmacokinetics in rats,51%
same,AUC(0-t),Pharmacokinetics in rats; read-out: AUC (0-24 h),877 ng·h/mL
